Assay results from patent publication US11674136B2, “DNA-templated macrocycle library” (President and Fellows of Harvard College, priority 2018, dated 2023).
Entries after “also recorded” stand apart in the source; their conditions may differ.

Target: T1, Recombinant human N-His6-IDE42-1019 (Homo sapiens, UniProt P14735)
T1 construct: Recombinant human N-His6-IDE42-1019(R&D Systems); His6 (N); purchased R&D Systems
T1 sequence (P14735 42-1019): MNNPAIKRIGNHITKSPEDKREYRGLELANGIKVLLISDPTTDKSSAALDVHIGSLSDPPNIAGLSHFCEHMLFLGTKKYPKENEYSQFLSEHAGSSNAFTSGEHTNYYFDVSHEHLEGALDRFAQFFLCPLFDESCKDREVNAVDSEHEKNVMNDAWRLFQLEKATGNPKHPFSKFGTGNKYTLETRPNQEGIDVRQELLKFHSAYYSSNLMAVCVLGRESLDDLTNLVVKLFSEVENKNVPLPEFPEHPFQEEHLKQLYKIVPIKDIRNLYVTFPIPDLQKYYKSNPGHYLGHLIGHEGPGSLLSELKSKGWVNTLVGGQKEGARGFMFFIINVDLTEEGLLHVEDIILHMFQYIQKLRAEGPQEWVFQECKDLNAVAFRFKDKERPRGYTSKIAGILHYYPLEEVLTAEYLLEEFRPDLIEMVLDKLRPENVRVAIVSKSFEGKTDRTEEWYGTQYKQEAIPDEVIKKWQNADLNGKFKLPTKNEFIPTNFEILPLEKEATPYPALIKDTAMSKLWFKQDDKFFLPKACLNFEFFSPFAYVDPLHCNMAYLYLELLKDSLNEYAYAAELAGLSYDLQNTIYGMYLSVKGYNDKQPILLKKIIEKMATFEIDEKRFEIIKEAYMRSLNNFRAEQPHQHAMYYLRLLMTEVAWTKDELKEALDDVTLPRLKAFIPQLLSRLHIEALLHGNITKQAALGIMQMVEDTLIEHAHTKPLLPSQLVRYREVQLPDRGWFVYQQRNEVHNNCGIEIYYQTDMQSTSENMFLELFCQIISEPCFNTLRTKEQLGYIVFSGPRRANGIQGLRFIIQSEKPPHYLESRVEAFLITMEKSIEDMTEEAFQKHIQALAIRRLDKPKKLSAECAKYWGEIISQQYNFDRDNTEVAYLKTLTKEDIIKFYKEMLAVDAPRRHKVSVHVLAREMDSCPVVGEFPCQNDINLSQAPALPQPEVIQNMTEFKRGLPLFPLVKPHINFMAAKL
Test: IDE inhibition assay with fluorogenic decapeptide substrate Mca-RPPGFSAFK(Dnp)-OH
Assay type: biochemical
Conditions: fluorogenic decapeptide cleavage assay; for IC50: DNA-free macrocycle; for IDE inhibition, potency in words: comparison with reference inhibitors
Protocol: Recombinant human N-His6-IDE42-1019(R&D Systems) was assayed using the fluorophore/quencher-tagged peptide substrate Mca-RPPGFSAFK(Dnp)-OH (R&D) according to the manufacturer's instructions and using the recommended buffer 50 mM Tris, pH 7.5, 1 M NaCl (fluorophore Mca=(7-methoxycourmarin-4-yl)acetyl and quencher Dnp=2,4-dinitrophenyl). The enzyme mixture (48 μL) was transferred to a 96-well plate and combined with 2 μL of inhibitor in DMSO solutions, as 3-fold dilution series. The mixtures were allowed to equilibrate for 5 minutes and the enzymatic reaction was started by addition of substrate peptide in assay buffer (50 μL), immediately mixed by orbital shaking, and monitored on a fluorescence plate reader (excitation at 320 nm, emission at 405 nm). […] Inhibitor 6bK was used as a positive control in each assay, and error bars correspond to the standard error.

NCCOCCNC(=O)C1Cc2ccccc2CNC(=O)CC(Cc2ccccc2)NC(=O)C(Cc2ccco2)NC(=O)CN2CCN(CC2)C(=O)C=CC(=O)N1 (stereo not drawn) [cis-CODVV]
IC50: 30000 nM

NCCOCCNC(=O)C1CCNC(=O)C=CC(=O)NC(Cc2ccccc2C(F)(F)F)C(=O)NC(CC2CCCCC2)C(=O)NC(Cc2ccc(C(=O)c3ccccc3)cc2)C(=O)N1 (stereo not drawn) [cis-DJIR]
IC50: 40 nM
IDE inhibition, potency in words: equipotent to the structurally similar trans-6bK and trans-6bA macrocycles; also recorded: at least as potent that 6bK

CC1NC(=O)C=CC(=O)NC(C(=O)NCCOCCN)Cc2cccc(c2)CNC(=O)C(Cc2ccc(C(=O)c3ccccc3)cc2)NC(=O)C(CC2CCCCC2)NC1=O (stereo not drawn) [trans-DJPM]
IC50: 50 nM
IDE inhibition, potency in words: equipotent to the structurally similar trans-6bK and trans-6bA macrocycles; also recorded: comparable in potency to our previously optimized 20-membered inhibitor 6bK; also recorded: equipotent to the previously optimized IDE inhibitor 6bK
